Test results reported in patent US10577365B2, “Derivatives of quinoline as inhibitors of DYRK1A and/or DYRK1B kinases” (Felicitex Therapeutics, Inc., priority 2016, dated 2020).
Structures can show the parent of a compound that is named as a salt. Where two headings read alike, the source gives them in different places.

How the values were obtained:
DYRK1A = target: T1, DYRK1A (Homo sapiens, UniProt Q13627); assay: DYRK1A in vitro kinase assay (ADP-Glo); format: biochemical; details: ATP 70 μM (Km), substrate 3 μM, enzyme 2 nM or 0.7 nM, 30 min, rt
T1 construct: purchased Carna Bioscence (Carna Biosciences) 04-130
Experimental: The compounds of the present invention were tested for their inhibitory activity against DYRK1A and DYRK1B kinases once or several times. When tested more than once, the data are reported herein as average value, wherein the average value, also referred to as the mean value, represents the sum of obtained values divided by the number of times tested.
DYRK-inhibitory activity of the compounds of the present invention was tested using the ADP-Glo™ assay as described in the following paragraphs. The procedure for determining the IC50 values with the ADP-Glo™ assay in in vitro kinase assays consists of two parts:
1. Kinase reaction performed under optimized conditions;
2. Detection of ADP as a product of the reaction using ADP-Glo™ system (Promega).
The tested compounds indicated in Table 5 below were dissolved in DMSO, then transferred to the V-bottom PP plate to perform nine serial dilutions (in order to obtain dose-response curves) in 25% DMSO, as indicated in Table 5 below.
The optimized conditions for performing DYRK1A in vitro kinase assay were as follows:
For compound testing, the following protocol was used: two mixes were prepared on ice, Mix 1 containing substrate, ATP and reaction buffer and Mix 2 containing reaction buffer and the kinase. 15 μL per well of Mix 1 was transferred to wells of a 96-well plate. Next, 2.5 μL of the pre-diluted compound to be tested was added to Mix 1, followed by the addition of 12.5 μL of Mix 2. Total reaction volume was 30 μL per well. The experiment was performed in duplicate for each data point being examined. Dose response curve for the positive control was carried out on each assay plate by adding the reference inhibitory compound staurosporine. For each test, three controls were also included: (i) 30 μL of the reaction mixture containing: reaction buffer, ATP, kinase, DMSO without substrate (quasi-positive control); (ii) 30 μL of the reaction mixture containing reaction buffer, substrate, ATP, DMSO without kinase (background control); (iii) 30 μL of the reaction mixture containing reaction buffer, substrate, kinase, ATP, DMSO (vehicle control). Final concentration of DMSO in the reaction was 2%. To detect the ADP amount produced during the kinase reaction, the commercially available kit ADP-Glo™ Kinase Assay (Promega, cat. No # V9103) was used. The protocol used for the detection was based on the Technical Bulletin of the ADP-Glo™ Kinase Assay (Promega) and was adapted to 96-well plate containing 30 μL reaction mixture as explained below.
30 μL of ADP-Glo™ Reagent was added to each well of a 96 well plate containing 30 μL of reaction mixture to terminate the kinase reaction and deplete the remaining ATP. The plate was incubated for 60 minutes on a shaker at rt. 60 μL of Kinase Detection Solution was then added to each well of 96-well plate containing 60 μL of the solution to convert ADP to ATP and to allow the newly synthesized ATP to be measured using a luciferase/luciferin reaction (ratio of kinase reaction volume to ADP Glo™ Reagent volume to Kinase Detection Solution volume was maintained at 1:1:2). The plate was incubated for 40 minutes on a shaker at rt, protected from light. Luminescence was measured in the plate reader, wherein the luminescent signal is proportional to the ADP concentration produced and thus correlates with kinase activity.
After data normalization to controls (complete reaction mix and no-substrate control) and transforming X values (test compound concentrations) using: X=log(X), IC50 values were determined, using the GraphPad Prism 6.0 [log(agonist) vs. normalized response—Variable slope].

DYRK1B = target: T2, DYRK1B (Homo sapiens, UniProt Q9Y463); assay: DYRK1B in vitro kinase assay (ADP-Glo); format: biochemical
T2 construct: purchased Carna Bioscence (Carna Biosciences) 04-131
Experimental: The compounds of the present invention were tested for their inhibitory activity against DYRK1A and DYRK1B kinases once or several times. When tested more than once, the data are reported herein as average value, wherein the average value, also referred to as the mean value, represents the sum of obtained values divided by the number of times tested. DYRK-inhibitory activity of the compounds of the present invention was tested using the ADP-Glo™ assay as described in the following paragraphs. The procedure for determining the IC50 values with the ADP-Glo™ assay in in vitro kinase assays consists of two parts: […] Kinase reaction performed under optimized conditions; 2. Detection of ADP as a product of the reaction using ADP-Glo™ system (Promega). The tested compounds indicated in Table 5 below were dissolved in DMSO, then transferred to the V-bottom PP plate to perform nine serial dilutions (in order to obtain dose-response curves) in 25% DMSO, as indicated in Table 5 below. The optimized conditions for performing DYRK1B in vitro kinase assay were as follows: [table] For compound testing, the following protocol was used: two mixes were prepared on ice, Mix 1 containing substrate, ATP and reaction buffer and Mix 2 containing reaction buffer and the kinase. 15 μL per well of Mix 1 was transferred to wells of a 96-well plate. […] Total reaction volume was 30 μL per well. The experiment was performed in duplicate for each data point being examined. Dose response curve for the positive control was carried out on each assay plate by adding the reference inhibitory compound staurosporine. For each test, three controls were also included: (i) 30 μL of the reaction mixture containing: reaction buffer, ATP, kinase, DMSO without substrate (quasi-positive control); (ii) 30 μL of the reaction mixture containing reaction buffer, substrate, ATP, DMSO without kinase (background control); (iii) 30 μL of the reaction mixture containing reaction buffer, substrate, kinase, ATP, DMSO (vehicle control). Final concentration of DMSO in the reaction was 2%. To detect the ADP amount produced during the kinase reaction, the commercially available kit ADP-Glo™ Kinase Assay (Promega, cat. No # V9103) was used. The protocol used for the detection was based on the Technical Bulletin of the ADP-Glo™ Kinase Assay (Promega) and was adapted to 96-well plate containing 30 μL reaction mixture as explained below. 30 μL of ADP-Glo™ Reagent was added to each well of a 96 well plate containing 30 μL of reaction mixture to terminate the kinase reaction and deplete the remaining ATP. The plate was incubated for 60 minutes on a shaker at rt. 60 μL of Kinase Detection Solution was then added to each well of 96-well plate containing 60 μL of the solution to convert ADP to ATP and to allow the newly synthesized ATP to be measured using a luciferase/luciferin reaction (ratio of kinase reaction volume to ADP Glo™ Reagent volume to Kinase Detection Solution volume was maintained at 1:1:2). The plate was incubated for 40 minutes on a shaker at rt, protected from light. Luminescence was measured in the plate reader, wherein the luminescent signal is proportional to the ADP concentration produced and thus correlates with kinase activity. After data normalization to controls (complete reaction mix and no-substrate control) and transforming X values (test compound concentrations) using: X=log(X), IC50 values were determined, using the GraphPad Prism 6.0 [log(agonist) vs. normalized response—Variable slope].

[1] = ADP-Glo assay, ATP 15 μM (Km), substrate 7 μM, enzyme 1 nM or 0.3 nM, 1 h, rt, read-out: DYRK1B IC50

T2 sequence (Q9Y463 whole entry): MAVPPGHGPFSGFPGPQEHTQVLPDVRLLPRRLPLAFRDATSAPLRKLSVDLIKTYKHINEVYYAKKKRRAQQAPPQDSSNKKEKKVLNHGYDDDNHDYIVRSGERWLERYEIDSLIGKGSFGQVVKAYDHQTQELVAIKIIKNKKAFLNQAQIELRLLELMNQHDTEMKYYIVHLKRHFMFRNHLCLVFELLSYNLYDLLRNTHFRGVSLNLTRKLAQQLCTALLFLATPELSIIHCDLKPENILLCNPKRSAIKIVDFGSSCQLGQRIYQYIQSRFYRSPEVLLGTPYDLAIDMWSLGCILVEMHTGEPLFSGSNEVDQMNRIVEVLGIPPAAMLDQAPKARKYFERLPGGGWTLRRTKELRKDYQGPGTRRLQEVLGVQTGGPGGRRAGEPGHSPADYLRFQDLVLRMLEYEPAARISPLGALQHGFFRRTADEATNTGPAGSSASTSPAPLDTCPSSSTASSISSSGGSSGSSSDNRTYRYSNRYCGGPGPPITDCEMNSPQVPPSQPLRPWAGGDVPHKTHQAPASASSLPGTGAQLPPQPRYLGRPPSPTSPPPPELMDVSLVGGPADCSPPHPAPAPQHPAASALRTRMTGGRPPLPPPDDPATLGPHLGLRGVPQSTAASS

SMILES | IC50 (DYRK1A) [nM] | IC50 (DYRK1B; [1]) [nM] | IC50 (DYRK1B) [nM]
CNC(=O)c1cnc2[nH]cc(-c3ccc4nccc(-c5cccnc5)c4c3)c2c1 [Example 22, N-Methyl-3-[4-(pyridin-3-yl)quinolin-6-yl]-1H-pyrrolo[2,3-b]pyridine-5-carboxamide] | < 10 | < 10 | 
c1ccc(-c2ccnc3ccc(-c4c[nH]c5ncccc45)cc23)cc1 [Example 8, 4-Phenyl-6-{1H-pyrrolo[2,3-b]pyridin-3-yl}quinoline] | < 10 | < 10 | 
c1cnc2ccc(-c3c[nH]c4ncccc34)cc2c1 [Example 2, 6-{1H-Pyrrolo[2,3-b]pyridin-3-yl}quinoline] | < 10 | < 10 | 
CNC(=O)c1cnc2[nH]cc(-c3ccc4ncccc4c3)c2c1 [Example 25, N-Methyl-3-(quinolin-6-yl)-1H-pyrrolo[2,3-b]pyridine-5-carboxamide] | < 10 | < 10 | 
Clc1ccnc2ccc(-c3c[nH]c4ncccc34)cc12 [Example 1, 4-Chloro-6-{1H-pyrrolo[2,3-b]pyridin-3-yl}quinoline] | 10 to 100 |  | 
N[C@H]1CCN(c2ccnc3ccc(-c4c[nH]c5ncccc45)cc23)C1 [Example 5, (3S)-1-(6-{1H-Pyrrolo[2,3-b]pyridin-3-yl}quinolin-4-yl)pyrrolidin-3-amine] | < 10 |  | 
COc1cc(-c2c[nH]c3ncccc23)cc2cccnc12 [Example 15, 8-Methoxy-6-{1H-pyrrolo[2,3-b]pyridin-3-yl}quinoline] |  | 10 to 100 | 
N[C@H]1CC[C@H](Nc2ccnc3ccc(-c4c[nH]c5ncccc45)cc23)CC1 [Example 4, trans-1-N-(6-{1H-Pyrrolo[2,3-b]pyridin-3-yl}quinolin-4-yl)cyclohexane-1,4-diamine] | > 100 |  | 
CN1CCC(Nc2ccnc3ccc(-c4c[nH]c5ncccc45)cc23)CC1 [Example 10, N-(1-Methylpiperidin-4-yl)-6-{1H-pyrrolo[2,3-b]pyridin-3-yl}quinolin-4-amine] |  | 10 to 100 | 
Cc1cc(-c2c[nH]c3ncccc23)cc2cccnc12 [Example 12, 8-Methyl-6-{1H-pyrrolo[2,3-b]pyridin-3-yl}quinoline hydrochloride] |  |  | 10 to 100
Cc1cc(-c2c[nH]c3ncccc23)cc2c(-c3cccnc3)ccnc12 [Example 18, 8-Methyl-4-(pyridin-3-yl)-6-{1H-pyrrolo[2,3-b]pyridin-3-yl}quinoline] |  | 10 to 100 | 
CNC(=O)c1cnc2[nH]cc(-c3cc(OC)c4ncccc4c3)c2c1 [Example 29, 3-(8-Methoxyquinolin-6-yl)-N-methyl-1H-pyrrolo[2,3-b]pyridine-5-carboxamide] |  | 10 to 100 | 

More lines, main results first:

IC50 (DYRK1A) [nM] | IC50 (DYRK1B; [1]) [nM] | SMILES | IC50 (DYRK1B) [nM]
10 to 100 | < 10 | O=C(NCc1ccccc1)c1cnc2[nH]cc(-c3cc(F)c4nccc(-c5cccnc5)c4c3)c2c1 [Example 36, N-Benzyl-3-[8-fluoro-4-(pyridin-3-yl)quinolin-6-yl]-1H-pyrrolo[2,3-b]pyridine-5-carboxamide] | 
< 10 | < 10 | O=C(NCc1cccnc1)c1cnc2[nH]cc(-c3ccc4ncc(NCC5CCOCC5)cc4c3)c2c1 [Example 63, 3-{3-[(Oxan-4-ylmethyl)amino]quinolin-6-yl}-N-(pyridin-3-ylmethyl)-1H-pyrrolo[2,3-b]pyridine-5-carboxamide] | 
< 10 | < 10 | N[C@@H]1CCCN(c2ccnc3c(F)cc(-c4c[nH]c5ncc(C(=O)NCc6cncnc6)cc45)cc23)C1 [Example 49, 3-{4-[(3R)-3-Aminopiperidin-1-yl]-8-fluoroquinolin-6-yl}-N-(pyrimidin-5-ylmethyl)-1H-pyrrolo[2,3-b]pyridine-5-carboxamide hydrochloride] | 
< 10 | < 10 | O=C(NCc1ccccc1)c1cnc2[nH]cc(-c3cc(F)c4ncccc4c3)c2c1 [Example 31, N-Benzyl-3-(8-fluoroquinolin-6-yl)-1H-pyrrolo[2,3-b]pyridine-5-carboxamide] | 
10 to 100 | < 10 | CNC(=O)c1cnc2[nH]cc(-c3ccc4ncc(NCc5cccc(Cl)c5)c(N5CCC[C@H](N)C5)c4c3)c2c1 [Example 55, 3-{4-[(3S)-3-Aminopiperidin-1-yl]-3-{[(3-chlorophenyl)methyl]amino}quinolin-6-yl}-N-methyl-1H-pyrrolo[2,3-b]pyridine-5-carboxamide hydrochloride] | 
10 to 100 | < 10 | N[C@H]1CC[C@H](Nc2c(NCC3CCOCC3)cnc3ccc(-c4c[nH]c5ncc(C(=O)NCc6cccnc6)cc45)cc23)CC1 [Example 60, 3-{4-[(4-Aminocyclohexyl)amino]-3-[(oxan-4-ylmethyl)amino]quinolin-6-yl}-N-(pyridin-3-ylmethyl)-1H-pyrrolo[2,3-b]pyridine-5-carboxamide hydrochloride] | 
10 to 100 | < 10 | CNC(=O)c1cnc2[nH]cc(-c3ccc4ncc(NCC5CCOCC5)c(N5CCOCC5)c4c3)c2c1 [Example 58, N-Methyl-3-[4-(morpholin-4-yl)-3-[(oxan-4-ylmethyl)amino]quinolin-6-yl]-1H-pyrrolo[2,3-b]pyridine-5-carboxamide] | 
 | 10 to 100 | CNC(=O)c1cnc2[nH]cc(-c3cc(C)c4nccc(-c5cccnc5)c4c3)c2c1 [Example 42, N-Methyl-3-[8-methyl-4-(pyridin-3-yl)quinolin-6-yl]-1H-pyrrolo[2,3-b]pyridine-5-carboxamide] | 
 | 10 to 100 | CN1CCC(Nc2c(C#N)cnc3ccc(-c4c[nH]c5ncccc45)cc23)CC1 [Example 64, 4-[(1-Methylpiperidin-4-yl)amino]-6-{1H-pyrrolo[2,3-b]pyridin-3-yl}quinoline-3-carbonitrile] | 
